Legend:
Type in all cases: cell-based
[1] = tested on: K562, Nalm-6, Molt-4, Reh, Jurkat, Hek293T cell lines; experiment: MTT assay, overall judgement over all cell lines; details: overall judgement in words; for 6 and 10: on all cell lines, except Reh
Method: To evaluate in-vitro anti-cancer activity of the newly synthesized compounds, they were tested by using the MTT assay in the BCR-ABL positive leukemic cell line (K562), BCR-ABL negative leukemic cell lines (Nalm-6, Molt-4, Reh and Jurkat), and non-leukemic human embryonic kidney tissue (Hek293T) cell line. […] The viability rate of each concentration was calculated by the formula stated in material and methods, the viability rate results for each cell were presented in Table S2 and Figure S44.

Jurkat = experiment: MTT assay, Jurkat cells; details: Homo sapiens, 24 h, read-out: Viability rate
Reh = experiment: MTT assay, Reh cells; details: Homo sapiens, 24 h, read-out: Viability rate
K562 = experiment: MTT assay, K562 cells; details: Homo sapiens, 24 h, MTT, read-out: Viability rate
[2] = MTT assay, Hek293T non-leukemic control cells; details: human, read-out: Viability rate
Nalm-6 = experiment: MTT assay, Nalm-6 cells; details: Homo sapiens, 24 h, MTT, read-out: Viability rate
Method: K562, Jurkat and Molt-4 cell lines were seeded as 4x10^5/ml, Reh and Nalm-6 cell lines were seeded 5x10^5/ml, Hek293T cell line was seed as 2x10^5/ml.
MTT assay is a 3-day test. On the first day, cell count was performed in Bio Rad TC-20 device with the help of trypan blue, each cell line was prepared by diluting to the specified concentrations and seeded in a 96-well plate as 100μL to each well and incubated for 1 day.
On the second day, stock solutions were subsequently diluted to various concentrations (0.3–200 μM) with related medium prior to experiments. Specified concentrations of the compounds were seeded in a 96-well plate as 100μL to each well and incubated for 24 h.
After incubation (on the third day), to precipitate leukemia cells, the cell plate was centrifuged at 1500 rpm for 5 min. […] The 50 μl of supernatant was discarded from each well and 100 μl of DMSO was added to dissolve the formazan. Plates were shaken for 45 min to dissolve the dye. Then the optical density of each well was measured by using Thermo VarioSkan Flush Multimode Reader Quantum ST5-1100 at 570 nm wavelength.
Subsequently, viability rate of the cells at each concentration, as percentage, was determined by following formula (1):
Viability rate (%)=100-[(OD(control)-OD(sample))/OD(control)×100].OD=Optical Density
The IC50 values were calculated by using GraphPad Prism. All the data presented as the mean of 6 replicates. […] Statistical analysis was performed using dose-response inhibition, log(inhibitor) vs response-variable slope, least squares (ordinary) fit.

Molt-4 = experiment: MTT assay, Molt-4 cells; details: Homo sapiens, MOLT-4, 24 h, read-out: Viability rate

Q: Which “anticancer activity according to MTT assay results” value [1] does the source give for `Cc1ccc(NC(=O)c2ccc(CN3CCN(c4ncccn4)CC3)cc2)cc1Nc1cnccn1` [Compound 7, N-(4-Methyl-3-(pyrazin-2-ylamino)phenyl)-4-((4-(pyrimidin-2-yl)piperazin-1-yl)methyl)benzamide] here?
A: very poor activity

Q: What about the viability at 0.3 µM (Jurkat; 0.3 μM) of the same molecule?
A: 77.4 ± 0.09%

Q: What about the viability at 0.5 µM (Jurkat; 0.5 μM) of the same molecule?
A: 77.3 ± 0.07%

Q: What about the viability at 1 µM (Jurkat; 1 μM) of the same molecule?
A: 75.7 ± 0.03%

Q: What about the viability at 3 µM (Jurkat; 3 μM) of the same molecule?
A: 75.5 ± 0.05%

Q: And the viability at 5 µM (Jurkat; 5 μM)?
A: 75.6 ± 0.03%

Q: And the viability at 10 µM (Jurkat; 10 μM)?
A: 74.6 ± 0.06%

Q: And the viability at 15 µM (Jurkat; 15 μM)?
A: 74.2 ± 0.05%

Q: What about the viability at 20 µM (Jurkat; 20 μM) of the same molecule?
A: 74 ± 0.06%

Q: And the viability at 30 µM (Jurkat; 30 μM)?
A: 73.2 ± 0.07%

Q: And the viability at 50 µM (Jurkat; 50 μM)?
A: 72.8 ± 0.03%

Q: What about the viability at 70 µM (Jurkat; 70 μM) of the same molecule?
A: 72.8 ± 0.03%

Q: And the viability at 100 µM (Jurkat; 100 μM)?
A: 72.7 ± 0.04%

Q: What about the viability at 150 µM (Jurkat; 150 μM) of the same molecule?
A: 72.4 ± 0.09%

Q: What about the viability at 200 µM (Jurkat; 200 μM) of the same molecule?
A: 72.1 ± 0.06%

Q: What about the viability at 0.3 µM (Reh; 0.3 μM) of the same molecule?
A: 110 ± 0.02%

Q: What about the viability at 0.5 µM (Reh; 0.5 μM) of the same molecule?
A: 109.8 ± 0.02%

Q: And the viability at 1 µM (Reh; 1 μM)?
A: 108.7 ± 0.02%

Q: What about the viability at 3 µM (Reh; 3 μM) of the same molecule?
A: 103.4 ± 0.02%

Q: What about the viability at 5 µM (Reh; 5 μM) of the same molecule?
A: 108.8 ± 0.02%

Q: And the viability at 10 µM (Reh; 10 μM)?
A: 106.5 ± 0.05%

Q: And the viability at 15 µM (Reh; 15 μM)?
A: 100.2 ± 0.02%

Q: And the viability at 20 µM (Reh; 20 μM)?
A: 95.5 ± 0.06%

Q: What about the viability at 30 µM (Reh; 30 μM) of the same molecule?
A: 85.4 ± 0.02%

Q: And the viability at 50 µM (Reh; 50 μM)?
A: 66.7 ± 0.02%

Q: What about the viability at 70 µM (Reh; 70 μM) of the same molecule?
A: 66.2 ± 0.03%

Q: And the viability at 100 µM (Reh; 100 μM)?
A: 67.7 ± 0.03%

Q: What about the viability at 150 µM (Reh; 150 μM) of the same molecule?
A: 66.8 ± 0.02%

Q: What about the viability at 200 µM (Reh; 200 μM) of the same molecule?
A: 62.8 ± 0.02%

Q: And the viability at 0.3 µM (K562; K562, 0.3 μM)?
A: 84.6 ± 0.15%

Q: And the viability at 0.5 µM (K562; K562, 0.5 μM)?
A: 84.5 ± 0.08%

Q: And the viability at 1 µM (K562; K562, 1 μM)?
A: 84.4 ± 0.08%

Q: What about the viability at 3 µM (K562; K562, 3 μM) of the same molecule?
A: 84.5 ± 0.1%

Q: And the viability at 5 µM (K562; K562, 5 μM)?
A: 82.9 ± 0.12%

Q: What about the viability at 10 µM (K562; K562, 10 μM) of the same molecule?
A: 81.6 ± 0.05%

Q: What about the viability at 15 µM (K562; K562, 15 μM) of the same molecule?
A: 80.1 ± 0.06%

Q: And the viability at 20 µM (K562; K562, 20 μM)?
A: 64 ± 0.07%

Q: And the viability at 30 µM (K562; K562, 30 μM)?
A: 63.9 ± 0.04%

Q: And the viability at 50 µM (K562; K562, 50 μM)?
A: 62.9 ± 0.06%

Q: What about the viability at 70 µM (K562; K562, 70 μM) of the same molecule?
A: 62.3 ± 0.07%

Q: And the viability at 100 µM (K562; K562, 100 μM)?
A: 62.2 ± 0.05%

Q: What about the viability at 150 µM (K562; K562, 150 μM) of the same molecule?
A: 61.6 ± 0.05%

Q: What about the viability at 200 µM (K562; K562, 200 μM) of the same molecule?
A: 59.5 ± 0.07%

Q: And the viability at 24 h, 0.3 µM ([2]; Hek293T cells (non-leukemic control cell line), 0.3 μM)?
A: 87.7 ± 0.06%

Q: What about the viability at 24 h, 0.5 µM ([2]; Hek293T cells (non-leukemic control cell line), 0.5 μM) of the same molecule?
A: 87.6 ± 0.07%

Q: What about the viability at 24 h, 3 µM ([2]; Hek293T cells (non-leukemic control cell line), 3 μM) of the same molecule?
A: 84.6 ± 0.05%

Q: What about the viability at 24 h, 5 µM ([2]; Hek293T cells (non-leukemic control cell line), 5 μM) of the same molecule?
A: 81 ± 0.09%

Q: What about the viability at 24 h, 10 µM ([2]; Hek293T cells (non-leukemic control cell line), 10 μM) of the same molecule?
A: 80.5 ± 0.06%

Q: What about the viability at 24 h, 15 µM ([2]; Hek293T cells (non-leukemic control cell line), 15 μM) of the same molecule?
A: 80.3 ± 0.04%

Q: And the viability at 24 h, 20 µM ([2]; Hek293T cells (non-leukemic control cell line), 20 μM)?
A: 76 ± 0.03%

Q: And the viability at 24 h, 30 µM ([2]; Hek293T cells (non-leukemic control cell line), 30 μM)?
A: 72.1 ± 0.02%

Q: What about the viability at 24 h, 50 µM ([2]; Hek293T cells (non-leukemic control cell line), 50 μM) of the same molecule?
A: 64.5 ± 0.02%

Q: And the viability at 24 h, 70 µM ([2]; Hek293T cells (non-leukemic control cell line), 70 μM)?
A: 64.2 ± 0.02%

Q: And the viability at 24 h, 100 µM ([2]; Hek293T cells (non-leukemic control cell line), 100 μM)?
A: 63.5 ± 0.07%

Q: And the viability at 24 h, 150 µM ([2]; Hek293T cells (non-leukemic control cell line), 150 μM)?
A: 60.8 ± 0.03%

Q: What about the viability at 24 h, 200 µM ([2]; Hek293T cells (non-leukemic control cell line), 200 μM) of the same molecule?
A: 55.1 ± 0.02%

Q: And the viability at 24 h, 1 µM ([2]; Hek293T cells, 1 μM)?
A: 87 ± 0.08%

Q: And the viability at 0.3 µM (Nalm-6; Nalm-6, 0.3 μM)?
A: 97.9 ± 0.06%

Q: And the viability at 0.5 µM (Nalm-6; Nalm-6, 0.5 μM)?
A: 95.1 ± 0.03%

Q: What about the viability at 1 µM (Nalm-6; Nalm-6, 1 μM) of the same molecule?
A: 95.1 ± 0.03%

Q: And the viability at 3 µM (Nalm-6; Nalm-6, 3 μM)?
A: 96 ± 0.03%

Q: And the viability at 5 µM (Nalm-6; Nalm-6, 5 μM)?
A: 95.6 ± 0.02%

Q: And the viability at 10 µM (Nalm-6; Nalm-6, 10 μM)?
A: 95.1 ± 0.02%

Q: And the viability at 15 µM (Nalm-6; Nalm-6, 15 μM)?
A: 95.9 ± 0.03%

Q: What about the viability at 20 µM (Nalm-6; Nalm-6, 20 μM) of the same molecule?
A: 96.4 ± 0.03%

Q: What about the viability at 30 µM (Nalm-6; Nalm-6, 30 μM) of the same molecule?
A: 96.5 ± 0.05%

Q: What about the viability at 50 µM (Nalm-6; Nalm-6, 50 μM) of the same molecule?
A: 72.3 ± 0.02%

Q: What about the viability at 70 µM (Nalm-6; Nalm-6, 70 μM) of the same molecule?
A: 71.8 ± 0.02%

Q: What about the viability at 100 µM (Nalm-6; Nalm-6, 100 μM) of the same molecule?
A: 71.3 ± 0.02%

Q: And the viability at 150 µM (Nalm-6; Nalm-6, 150 μM)?
A: 70.2 ± 0.01%

Q: What about the viability at 200 µM (Nalm-6; Nalm-6, 200 μM) of the same molecule?
A: 59.7 ± 0.02%

Q: And the viability at 0.3 µM (Molt-4; Molt-4, 0.3 μM)?
A: 93.3 ± 0.16%

Q: What about the viability at 0.5 µM (Molt-4; Molt-4, 0.5 μM) of the same molecule?
A: 93.8 ± 0.08%

Q: And the viability at 1 µM (Molt-4; Molt-4, 1 μM)?
A: 89.8 ± 0.07%

Q: And the viability at 3 µM (Molt-4; Molt-4, 3 μM)?
A: 89.6 ± 0.12%

Q: What about the viability at 5 µM (Molt-4; Molt-4, 5 μM) of the same molecule?
A: 89.7 ± 0.08%

Q: What about the viability at 10 µM (Molt-4; Molt-4, 10 μM) of the same molecule?
A: 89.5 ± 0.06%

Q: And the viability at 15 µM (Molt-4; Molt-4, 15 μM)?
A: 90.3 ± 0.04%

Q: What about the viability at 20 µM (Molt-4; Molt-4, 20 μM) of the same molecule?
A: 90.2 ± 0.06%

Q: And the viability at 30 µM (Molt-4; Molt-4, 30 μM)?
A: 90.9 ± 0.06%

Q: What about the viability at 50 µM (Molt-4; Molt-4, 50 μM) of the same molecule?
A: 92.2 ± 0.05%

Q: And the viability at 70 µM (Molt-4; Molt-4, 70 μM)?
A: 90.6 ± 0.06%

Q: And the viability at 100 µM (Molt-4; Molt-4, 100 μM)?
A: 85.5 ± 0.06%

Q: What about the viability at 150 µM (Molt-4; Molt-4, 150 μM) of the same molecule?
A: 90.4 ± 0.04%

Q: What about the viability at 200 µM (Molt-4; Molt-4, 200 μM) of the same molecule?
A: 89.8 ± 0.07%

Source: paper PMC10734772 (Turkish Journal of Chemistry, 2021)
